Data: US20250318528A1, “HERBICIDE COMPOSITION AND WEED CONTROLLING METHOD” (SUMITOMO CHEMICAL COMPANY, LIMITED, priority 2022, published 2025)
Where a name gives a salt, the structure may show the parent alone.

Key:
Format in all cases: in vivo
[1] = tested on: Italian ryegrass (Lolium multiflorum); assay: Herbicidal effect, foliar spray pot test (Example 349); conditions: sprayed 21 days after seeding, evaluated after 4 days, rating 0 to 100
Procedure: (§1) The formulation (1-41) was produced in the same manner as in Example 348.
(§2) After filling a plastic pot with soil, common barnyardgrass (Echinochloa crus-galli) and Italian ryegrass (Lolium multiflorum) were seeded therein and grown in a greenhouse. The weeds were then cultivated in the greenhouse, and 21 days after seeding, a spray liquid containing the formulation (1-41) and/or EnlistOne (670 g/L of 2,4-D choline salt, manufactured by Dow AgroSciences) prepared so that the application rate of the compound (I-41) might be 20 g/ha and the application rate of EnlistOne might be 798 g/ha as an equivalent of 2,4-D choline salt (1.754 L/ha (24 fluid ounce/acre) as […]) was uniformly sprayed above the pot using a spraying machine so that the spray liquid amount might be 218 L/ha. Thereafter, the weeds were grown in the greenhouse for 4 days and the herbicidal effect was evaluated.
(§3) From the results of the herbicidal effect (value of A or B) for the single use of each of the compounds, the expected value of the herbicidal effect when the compounds were combined was determined according to the Colby's equation: […]

[2] = tested on: common barnyardgrass (Echinochloa crus-galli); assay: as above; conditions: sprayed 21 days after seeding, evaluated after 4 days, rating 0 to 100
Procedure: as §1, §2, §3

weeds = assay: Examples 1 to 23 with compound (I-15) replaced by another compound (I) (Examples 24 to 115); conditions: as Examples 1 to 23 with compound (I-15) replaced; used with pyroxasulfone, saflufenacil, flumioxazin and/or glyphosate-potassium salt; crop soybean, corn or cotton
[3] = tested on: Italian ryegrass (Lolium multiflorum); assay: Herbicidal effect, foliar spray pot test (Example 346); conditions: sprayed 17 days after seeding, evaluated after 4 days, rating 0 to 100
Procedure: (§4) The compound (I-15) (55 mg), 76.5 mg of Emulsogen TS290 (polyoxyethylene tristyryl phenyl ether, manufactured by Clariant) and 76.5 mg of Phenylsulfonat CAL (mixture of 70% calcium dodecylbenzenesulfonate and 30% iso-butanol, manufactured by Clariant) were dissolved in Solvesso 200ND (aromatic hydrocarbon, manufactured by Exxon Mobile Corporation) to make 1 ml in total, thus producing an emulsifiable concentrate (hereinafter referred to as formulation (I-15)).
(§5) After filling a plastic pot with soil, common barnyardgrass (Echinochloa crus-galli) and Italian ryegrass (Lolium multiflorum) were seeded therein and grown in a greenhouse. The weeds were then cultivated in the greenhouse, and 17 days after seeding, a spray liquid containing the formulation (1-15) and/or Roundup PowerMax (660 g/L of glyphosate potassium salt, manufactured by Monsanto Company) prepared so that the application rate of the compound (I-15) might be 20 g/ha and the application rate of Roundup PowerMax might be 1262 g/ha as an equivalent of glyphosate acid (2.338 L/ha (32 fluid ounce/acre) as Roundup PowerMax) was uniformly sprayed above the pot using a spraying machine so that the spray liquid amount may be 218 L/ha. Thereafter, the weeds were grown in the greenhouse for 4 days and the herbicidal effect was evaluated.
as §3

[4] = tested on: common barnyardgrass (Echinochloa crus-galli); assay: as above; conditions: sprayed 17 days after seeding, evaluated after 4 days, rating 0 to 100
Procedure: as §4, §5, §3

[5] = tested on: Italian ryegrass (Lolium multiflorum); assay: Herbicidal effect, foliar spray pot test (Example 347); conditions: sprayed 17 days after seeding, evaluated after 4 days, rating 0 to 100
Procedure: (§6) The formulation (I-15) was produced in the same manner as in Example 346.
(§7) After filling a plastic pot with soil, common barnyardgrass (Echinochloa crus-galli) and Italian ryegrass (Lolium multiflorum) were seeded therein and grown in a greenhouse. The weeds were then cultivated in the greenhouse, and 17 days after seeding, a spray liquid containing the formulation (1-15) and/or Xtendimax (350 g/L of dicamba diglycolamine salt, manufactured by Monsanto Company) prepared so that the application rate of the compound (I-15) might be 20 g/ha and the application rate of Xtendimax might be 560 g/ha as an equivalent of dicamba acid (1.608 L/ha (22.0 fluid ounce/acre) as Xtendimax) was uniformly sprayed above the pot using a spraying machine so that the spray liquid amount might be 218 L/ha. Thereafter, the weeds were grown in the greenhouse for 4 days and the herbicidal effect was evaluated.
as §3

[6] = tested on: common barnyardgrass (Echinochloa crus-galli); assay: as above; conditions: sprayed 17 days after seeding, evaluated after 4 days, rating 0 to 100
Procedure: as §6, §7, §3

[7] = tested on: Italian ryegrass (Lolium multiflorum); assay: Herbicidal effect, foliar spray pot test (Example 348); conditions: sprayed 17 days after seeding, evaluated after 4 days, rating 0 to 100
Procedure: (§8) The compound (I-41) (55 mg), 76.5 mg of Emulsogen TS290 (polyoxyethylene tristyryl phenyl ether, manufactured by Clariant) and 76.5 mg of Phenylsulfonat CAL (mixture of 70% calcium dodecylbenzenesulfonate and 30% iso-butanol, manufactured by Clariant) were dissolved in Solvesso 200ND (aromatic hydrocarbon, manufactured by Exxon Mobile Corporation) to make 1 ml in total, thus producing an emulsifiable concentrate (hereinafter referred to as formulation (I-41)).
(§9) After filling a plastic pot with soil, common barnyardgrass (Echinochloa crus-galli) and Italian ryegrass (Lolium multiflorum) were seeded therein and grown in a greenhouse. The weeds were then cultivated in the greenhouse, and 17 days after seeding, a spray liquid containing the formulation (1-41) and/or Liberty (280 g/L of glufosinate ammonium salt, manufactured by Bayer) prepared so that the application rate of the compound (I-41) might be 20 g/ha and the application rate of Liberty might be 594 g/ha as glufosinate ammonium salt (2.12 L/ha (29.0 fluid ounce/acre) as Liberty) was uniformly sprayed above the pot using a spraying machine so that the spray liquid amount might be 218 L/ha. Thereafter, the weeds were grown in the greenhouse for 4 days and the herbicidal effect was evaluated.
as §3

[8] = tested on: common barnyardgrass (Echinochloa crus-galli); assay: as above; conditions: sprayed 17 days after seeding, evaluated after 4 days, rating 0 to 100
Procedure: as §8, §9, §3

[9] = 2,4-D choline salt 798 g/ha (EnlistOne) alone
[10] = compound (I-15) 20 g/ha alone, 218 L/ha
[11] = compound (I-41) 20 g/ha alone, 218 L/ha
[12] = dicamba diglycolamine salt 560 g/ha (dicamba acid equivalent, Xtendimax) alone
[13] = glufosinate ammonium salt 594 g/ha (Liberty) alone
[14] = glyphosate potassium salt 1,262 g/ha (glyphosate acid equivalent, Roundup PowerMax) alone

C[N+](C)(C)CCO.O=C([O-])COc1ccc(Cl)cc1Cl [2,4-D choline salt, reference compound]
Herbicidal effect Observed value [1, 9]: 5
Herbicidal effect Observed value [2, 9]: 10

CCOC(=O)C(CC)OC(=O)C1(Oc2cc(-n3c(=O)cc(C(F)(F)F)n(C)c3=O)c(F)cc2Cl)CC1 (centres unmarked) [Compound (I-33)]
weed control effect compared to the single use of each of the compounds (weeds): synergistic weed control effect

COC(=O)C(C)OC(=O)C1(Oc2cc(-n3c(=O)cc(C(F)(F)F)n(C)c3=O)c(F)cc2Cl)CC1 (centres unmarked) [Compound (I-15)]
Herbicidal effect Observed value [3, 10]: 20
Herbicidal effect Observed value [4, 10]: 70
Herbicidal effect Observed value [5, 10]: 20
Herbicidal effect Observed value [6, 10]: 70

CCOC(=O)C(C)OC(=O)C1(Oc2cc(-n3c(=O)cc(C(F)(F)F)n(C)c3=O)c(F)cc2Cl)CC1 (centres unmarked) [Compound (I-29)]
weed control effect compared to the single use of each of the compounds (weeds): synergistic weed control effect

CCOC(=O)C1(OC(=O)C2(Oc3cc(-n4c(=O)cc(C(F)(F)F)n(C)c4=O)c(F)cc3Cl)CC2)CC1 [Compound (I-41)]
Herbicidal effect Observed value [7, 11]: 20
Herbicidal effect Observed value [8, 11]: 50
Herbicidal effect Observed value [1, 11]: 20
Herbicidal effect Observed value [2, 11]: 70
weed control effect compared to the single use of each of the compounds (weeds): synergistic weed control effect

CCOC(=O)C(C)(C)OC(=O)C1(Oc2cc(-n3c(=O)cc(C(F)(F)F)n(C)c3=O)c(F)cc2Cl)CC1 [Compound (I-30)]
weed control effect compared to the single use of each of the compounds (weeds): synergistic weed control effect

COc1c(Cl)ccc(Cl)c1C(=O)O.NCCOCCO [Dicamba diglycolamine salt, dicamba diglycolamine salt, reference compound]
Herbicidal effect Observed value [5, 12]: 0
Herbicidal effect Observed value [6, 12]: 5

CP(=O)(O)CCC(N)C(=O)O (centres unmarked) [Glufosinate ammonium salt, glufosinate ammonium salt, reference compound]
Herbicidal effect Observed value [7, 13]: 40
Herbicidal effect Observed value [8, 13]: 70

O=C(O)CNCP(=O)(O)O [Glyphosate potassium salt, reference compound]
Herbicidal effect Observed value [3, 14]: 10
Herbicidal effect Observed value [4, 14]: 30
